# Active and inactive are the calls of the source.
# Key:
# [1] = biological target: Induced myeloid leukemia cell differentiation protein Mcl-1 (Homo sapiens, UniProt Q07820); format: functional
# [2] = test system: INS1; experiment: beta cell apoptosis inhibitors, cytokine rescue, dose response, luminescence, retest (AID 449756); format: functional, cell-based; conditions: Rattus norvegicus;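 further: cell death triggered by IL-1 beta plus TNF-alpha plus IFN-gamma mixture; protective hits raise ATP signal compared with cytokine alone wells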
# [3] = cytotoxicity in HEK-293T cells, dose response, cytotoxicity control for TCR NF-kB inhibitor project, luminescence, T-cell screen hits (AID 489026); format: functional, cell-based;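 further: cells exposed to compound about 14 hours before the viability readout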
# [4] = HEp-2 cell cytotoxicity, dose response, cytotoxicity control for RSV inhibitor project, HTS (AID 2410); format: functional; conditions: human respiratory syncytial virus
# [5] = biological target: T1, Short transient receptor potential channel 4 (Mus musculus, UniProt Q9QUQ5); experiment: mouse TRPC4 channel inhibitors, dose response, cell-based, HEK293 TRPC4/mu-opioid, Fluo-4 calcium (AID 434942); format: functional;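 further: potency of inhibitors blocking the TRPC4 calcium response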
# T1 sequence (Q9QUQ5 whole entry): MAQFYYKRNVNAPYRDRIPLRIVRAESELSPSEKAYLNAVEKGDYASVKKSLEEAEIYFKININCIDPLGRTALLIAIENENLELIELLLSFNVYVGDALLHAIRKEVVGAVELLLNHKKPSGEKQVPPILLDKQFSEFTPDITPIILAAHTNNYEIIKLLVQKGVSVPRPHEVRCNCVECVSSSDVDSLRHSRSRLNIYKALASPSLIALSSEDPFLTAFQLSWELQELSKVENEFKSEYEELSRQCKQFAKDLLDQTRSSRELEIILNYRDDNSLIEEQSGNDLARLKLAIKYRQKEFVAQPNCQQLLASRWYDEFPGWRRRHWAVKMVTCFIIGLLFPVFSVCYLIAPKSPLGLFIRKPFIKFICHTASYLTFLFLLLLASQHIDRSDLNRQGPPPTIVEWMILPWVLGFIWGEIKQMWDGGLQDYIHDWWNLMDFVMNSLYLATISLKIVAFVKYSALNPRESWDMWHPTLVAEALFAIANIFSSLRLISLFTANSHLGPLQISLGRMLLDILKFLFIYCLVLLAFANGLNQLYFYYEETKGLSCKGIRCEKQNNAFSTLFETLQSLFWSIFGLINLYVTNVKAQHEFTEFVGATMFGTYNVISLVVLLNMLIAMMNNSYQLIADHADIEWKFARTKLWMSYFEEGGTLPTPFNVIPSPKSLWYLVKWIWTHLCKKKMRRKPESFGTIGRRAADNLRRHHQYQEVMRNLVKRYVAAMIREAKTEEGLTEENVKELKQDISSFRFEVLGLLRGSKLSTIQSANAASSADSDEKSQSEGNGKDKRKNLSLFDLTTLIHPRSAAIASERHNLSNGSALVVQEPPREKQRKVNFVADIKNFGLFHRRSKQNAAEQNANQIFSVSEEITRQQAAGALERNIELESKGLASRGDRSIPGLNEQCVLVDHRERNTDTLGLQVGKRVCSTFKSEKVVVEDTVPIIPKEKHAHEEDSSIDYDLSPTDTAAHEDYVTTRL
# [6] = cells; format: functional, cell-based
# [7] = cells; format: functional, cell-based; remark: listed apart in the source
# [8] = Luminescence Cell-Based Dose Retest to Confirm Inhibitors of Cancer Stem Cells. [Related pubchem assays (depositor defined):AID2717, AID2721]; format: functional, Homo sapiens; conditions: Homo sapiens
# [9] = test system: HEK293; experiment: cells; format: functional, cell-based; conditions: Homo sapiens
# [10] = test system: HEK293; experiment: NOD2 signaling inhibitors in MDP-stimulated cells, cell-based, uHTS, luminescence (AID 2001); format: functional; conditions: Homo sapiens
# [11] = test system: HEK293; experiment: NOD1 signaling inhibitors, primary screen, cell-based, luminescence, uHTS (AID 1578); format: functional; conditions: Homo sapiens
# [12] = test system: HEK293; experiment: cells; format: functional, cell-based; conditions: Homo sapiens; remark: listed apart in the source
# [13] = biological target: T2, Histone-lysine N-methyltransferase NSD2 (Homo sapiens, UniProt O96028); format: biochemical
# T2 sequence (O96028 whole entry): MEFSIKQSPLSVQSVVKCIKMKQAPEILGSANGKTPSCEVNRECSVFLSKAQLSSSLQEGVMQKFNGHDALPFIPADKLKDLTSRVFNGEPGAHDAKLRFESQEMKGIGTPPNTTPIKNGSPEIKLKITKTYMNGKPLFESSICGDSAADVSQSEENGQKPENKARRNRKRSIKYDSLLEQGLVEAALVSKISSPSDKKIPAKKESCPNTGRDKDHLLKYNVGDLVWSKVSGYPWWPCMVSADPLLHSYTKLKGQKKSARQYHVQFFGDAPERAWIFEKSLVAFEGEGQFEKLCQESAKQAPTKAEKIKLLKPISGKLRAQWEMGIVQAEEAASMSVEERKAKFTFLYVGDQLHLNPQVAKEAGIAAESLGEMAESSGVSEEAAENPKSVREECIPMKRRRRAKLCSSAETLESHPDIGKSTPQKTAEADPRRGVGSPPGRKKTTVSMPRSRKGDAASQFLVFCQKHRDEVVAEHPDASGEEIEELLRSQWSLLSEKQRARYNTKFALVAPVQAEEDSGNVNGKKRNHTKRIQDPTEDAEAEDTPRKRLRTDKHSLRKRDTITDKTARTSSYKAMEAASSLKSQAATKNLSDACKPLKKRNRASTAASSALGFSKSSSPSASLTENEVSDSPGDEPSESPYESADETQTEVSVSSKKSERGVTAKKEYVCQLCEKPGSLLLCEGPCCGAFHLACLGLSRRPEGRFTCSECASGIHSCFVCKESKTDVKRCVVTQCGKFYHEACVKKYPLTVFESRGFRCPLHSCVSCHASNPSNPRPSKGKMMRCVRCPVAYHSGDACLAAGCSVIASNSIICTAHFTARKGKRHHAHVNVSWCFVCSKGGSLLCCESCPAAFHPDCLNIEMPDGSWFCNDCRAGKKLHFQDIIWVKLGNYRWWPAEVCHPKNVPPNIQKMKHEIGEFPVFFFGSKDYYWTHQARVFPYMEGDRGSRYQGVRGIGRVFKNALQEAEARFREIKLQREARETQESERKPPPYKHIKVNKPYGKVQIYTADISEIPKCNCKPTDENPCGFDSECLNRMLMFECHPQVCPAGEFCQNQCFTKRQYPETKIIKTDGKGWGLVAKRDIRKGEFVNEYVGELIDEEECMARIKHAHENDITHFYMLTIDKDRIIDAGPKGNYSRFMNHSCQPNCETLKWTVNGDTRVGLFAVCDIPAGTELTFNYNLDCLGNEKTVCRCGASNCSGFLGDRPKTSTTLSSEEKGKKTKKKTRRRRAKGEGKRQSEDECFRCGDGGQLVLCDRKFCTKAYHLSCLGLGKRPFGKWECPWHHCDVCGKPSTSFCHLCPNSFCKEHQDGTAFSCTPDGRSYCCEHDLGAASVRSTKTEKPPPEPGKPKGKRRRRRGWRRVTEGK
# [14] = inhibitors of intracellular T. cruzi replication, confirmation, NIH3T3 host cells, beta-gal luminescence (AID 2044); format: functional, cell-based;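 further: intracellular parasites grown in NIH/3T3 mouse fibroblasts as host cells; luminescent beta-galactosidase reporter signal from transgenic T. cruzi replicating inside host cells; inhibitors lower the luminescence signal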
# [15] = biological target: FAD-linked sulfhydryl oxidase ALR (Homo sapiens, UniProt P55789); experiment: inhibitors of human ALR sulfhydryl oxidase, dose response, biochemical, H2O2 detection, luminescence, cherry-pick (AID 493248)
# FAD-linked sulfhydryl oxidase ALR, sequence (P55789 whole entry): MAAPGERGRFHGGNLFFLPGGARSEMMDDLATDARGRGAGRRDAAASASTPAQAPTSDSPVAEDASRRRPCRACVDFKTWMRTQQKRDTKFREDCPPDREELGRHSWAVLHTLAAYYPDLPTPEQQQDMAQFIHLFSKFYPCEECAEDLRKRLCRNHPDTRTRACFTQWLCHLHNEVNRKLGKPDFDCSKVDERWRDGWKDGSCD
# [16] = cytotoxicity toward NIH3T3 fibroblasts, dose response, counter-screen, cell-based, ATP luminescence, mouse fibroblasts (AID 2010); format: functional;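 further: cells exposed to compound for about 90 hours before reading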
# [17] = microbe, parasite or virus in culture; format: functional; conditions: Mycobacterium tuberculosis
# [18] = biological target: T3, Rac GTPase-activating protein 1 (Homo sapiens, UniProt Q9H0H5); experiment: MgcRacGAP GTPase-activating activity inhibitors, confirmation, biochemical, ADP Hunter fluorescence, primary and confirmatory (AID 624330); format: functional
# T3 sequence (Q9H0H5 whole entry): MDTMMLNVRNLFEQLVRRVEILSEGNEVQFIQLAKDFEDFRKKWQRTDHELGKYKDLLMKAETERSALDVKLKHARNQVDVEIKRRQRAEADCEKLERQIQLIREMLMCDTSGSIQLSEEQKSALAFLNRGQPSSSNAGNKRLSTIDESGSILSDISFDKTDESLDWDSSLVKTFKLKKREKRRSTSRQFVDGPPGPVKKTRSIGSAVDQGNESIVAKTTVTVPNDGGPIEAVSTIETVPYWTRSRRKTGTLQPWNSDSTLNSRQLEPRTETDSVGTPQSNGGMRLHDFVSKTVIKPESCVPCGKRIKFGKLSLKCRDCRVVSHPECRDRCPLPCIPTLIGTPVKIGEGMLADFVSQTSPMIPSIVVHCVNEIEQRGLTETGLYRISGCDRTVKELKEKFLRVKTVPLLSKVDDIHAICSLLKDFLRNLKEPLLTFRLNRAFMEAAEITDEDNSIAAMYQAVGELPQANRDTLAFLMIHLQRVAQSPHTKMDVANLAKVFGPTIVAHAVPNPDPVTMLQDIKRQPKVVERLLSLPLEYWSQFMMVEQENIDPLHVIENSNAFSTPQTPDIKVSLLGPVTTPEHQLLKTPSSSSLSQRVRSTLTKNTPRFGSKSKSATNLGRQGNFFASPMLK
# [19] = inhibitors of firefly luciferase expression or activity, dose response, H4 neuroglioma cells, luminescence (AID 1990); format: functional, cell-based
# [20] = Luminescence Cell-Based Dose Response HTS to Identify Inhibitors of 5'UTR Stem-Loop Driven Prion Protein mRNA Translation in H4 Neuroglioblastoma Cells. [Related pubchem assays: 1827 (Project Summary), 1813 (Primary HTS)]; format: functional
# [21] = inhibitors of SNCA 5'UTR-driven reporter translation, confirmation, H4 neuroglioma cells, luminescence (AID 1988); format: functional, cell-based
# [22] = biological target: T4, Heat shock factor protein 1 (Mus musculus, UniProt P38532); experiment: inhibition of MG132-induced HSE-luciferase signal, confirmation, cell-based, NIH3T3, luminescence, dose retest (AID 2382); format: functional;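 further: NIH3T3 fibroblasts with HSF1-driven luciferase reporter stressed by proteasome inhibitor MG132; luminescence from HSF1-driven luciferase expression after 8 hours of MG132 stress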
# T4 sequence (P38532 whole entry): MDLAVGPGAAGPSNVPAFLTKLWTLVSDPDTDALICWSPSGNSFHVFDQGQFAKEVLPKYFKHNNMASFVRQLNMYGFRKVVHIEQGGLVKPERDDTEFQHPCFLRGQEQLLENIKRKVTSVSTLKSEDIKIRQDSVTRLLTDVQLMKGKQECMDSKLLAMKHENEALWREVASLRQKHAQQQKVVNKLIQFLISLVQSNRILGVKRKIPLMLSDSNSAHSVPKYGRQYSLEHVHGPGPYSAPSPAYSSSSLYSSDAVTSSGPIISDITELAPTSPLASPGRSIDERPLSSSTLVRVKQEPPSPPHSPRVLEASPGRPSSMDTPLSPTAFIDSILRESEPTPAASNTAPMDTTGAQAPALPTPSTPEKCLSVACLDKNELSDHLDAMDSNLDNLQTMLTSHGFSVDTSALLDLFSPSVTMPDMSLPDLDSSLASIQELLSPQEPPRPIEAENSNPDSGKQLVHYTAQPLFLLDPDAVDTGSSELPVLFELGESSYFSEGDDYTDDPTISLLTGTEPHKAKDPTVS
# [23] = cells; format: functional
# Induced myeloid leukemia cell differentiation protein Mcl-1, sequence (Q07820 whole entry): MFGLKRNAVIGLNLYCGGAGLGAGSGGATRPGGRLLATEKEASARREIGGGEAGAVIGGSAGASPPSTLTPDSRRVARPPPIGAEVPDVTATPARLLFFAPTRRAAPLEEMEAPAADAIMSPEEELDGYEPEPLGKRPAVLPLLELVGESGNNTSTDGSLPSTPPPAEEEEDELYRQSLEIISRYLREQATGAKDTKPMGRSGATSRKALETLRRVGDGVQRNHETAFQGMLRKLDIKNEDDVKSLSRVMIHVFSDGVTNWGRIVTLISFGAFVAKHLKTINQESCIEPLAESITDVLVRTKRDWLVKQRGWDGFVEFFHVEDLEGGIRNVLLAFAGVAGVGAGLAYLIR
structure (smiles),measurement,setting,value
O=C1NC(=S)N/C1=C/c1cccn1-c1ccc([N+](=O)[O-])cc1,IC50,[1],4.63 µM (not active)
C=C1C(O)[C@@H]2O[C@]3(CC[C@H](/C=C/C(C)[C@@H]4CC(C)=CC5(O[C@H](C[C@@](C)(O)CO)CCC5O)O4)O3)CC[C@H]2O[C@@H]1C(O)CC(C)[C@H]1OC2(CCCCO2)CCC1C (stereo partly specified),AC50,[2],5.98 µM (active)
same,IC50,[3],> 80 µM (inactive)
CCN(CC)c1ccc([N+](=O)[O-])c2cccnc12,CC50,[4],36.7 µM (active)
same,EC50,[5],10.6 µM (active)
NC(=O)c1nsc(C(=O)N(Cc2ccco2)C(C(=O)NCC2CCCO2)c2ccc(F)cc2)c1N (stereo unspecified),EC50,[5],10.6 µM (active)
O=C(CSc1nnc(-c2ccncc2)o1)N1CCCCCC1,EC50,[6],> 350 µM (not active)
same,EC50,[7],> 350 µM (not active)
Cc1nn(C(=O)c2cccc([N+](=O)[O-])c2)c(C)c1Sc1ccccc1,EC50,[5],2.66 µM (active)
COc1cc(-c2noc(C)c2/C=C/c2ccc(OC(C)=O)cc2)cc(OC)c1OC,AC50,[8],0.222 µM (active)
same,IC50,[3],52.8 µM (inactive)
CCC(=O)N1CCc2cc(S(=O)(=O)NCCC(=O)N3CCN(c4cccc(OC)c4)CC3)ccc21,EC50,[6],> 350 µM (not active)
same,EC50,[7],> 350 µM (not active)
CC(C)CCN1CCN(Cc2ccsc2)CC1CCO (stereo unspecified),EC50,[5],4.22 µM (active)
O=C(c1[nH]nc2c1CCc1ccccc1-2)N1CCN(Cc2ccc3c(c2)OCO3)CC1,IC50,[9],8.27 µM (active)
same,IC50,[10],5.11 µM (active)
same,EC50,[11],5.4 µM (active)
same,IC50,[12],4.07 µM (active)
CNCc1ccccc1OCc1ccccc1F,IC50,[1],0.557 µM (active)
same,AC50,[13],> 20 µM (inactive)
Cc1cc(C(=O)NNc2ccccc2F)no1,EC50,[14],2.26 µM (active)
same,AC50,[15],5.7 µM (active)
same,EC50,[16],5.14 µM (active)
COc1ccc(/C=C/CN2CCC(CO)(Cc3ccccc3Cl)CC2)cc1,CC50,[17],32.7 µM (active)
Nc1ccc(N2CCN(c3ccccc3)CC2)c(F)c1,AC50,[15],13.2 µM (active)
same,IC50,[18],46.6 µM (active)
Cc1c(C(=O)OC2CCCC2)[nH]c2c1C(=O)CC(c1ccco1)C2 (stereo unspecified),IC50,[3],> 80 µM (inactive)
CCC1(C(=O)c2ccccc2)C(c2ccc([N+](=O)[O-])cc2)C1(C(=O)OC)C(=O)OC (stereo unspecified),EC50,[5],4.22 µM (active)
CCS(=O)(=O)N1CCN(C(C)CCc2ccccc2)CC1 (stereo unspecified),IC50,[1],6 µM (not active)
C/C(=N\NC(=O)CN1CCN(S(=O)(=O)c2ccc(C)cc2)CC1)c1ccc(O)cc1,AC50,[15],2.92 µM (active)
CCOc1ccc(S(=O)(=O)N2c3ccccc3CC2C)cc1 (stereo unspecified),EC50,[19],7.65 µM (inconclusive)
same,EC50,[20],7.42 µM (active)
same,IC50,[3],> 80 µM (inactive)
same,EC50,[21],3.2 µM (active)
COc1ccc(Nc2ncnc3ccc(Br)cc23)c(OC)c1,EC50,[22],0.354 µM (active)
same,IC50,[3],> 80 µM (inactive)
COc1ccc2c(c1)c(C(=O)CN1CCc3ccccc3C1)c(C)n2C,EC50,[6],> 350 µM (not active)
same,EC50,[7],> 350 µM (not active)
Cn1c(CNc2ccccc2O)nc2ccccc21,CC50,[17],30.4 µM (active)
same,IC50,[23],4.79 µM (active)
CCCCOc1ccc(CSCCN=C(N)N)cc1,EC50,[5],3.35 µM (active)

# From ChEMBL document CHEMBL1201862, “PubChem BioAssay data set” (2004)
